What was measured:
Type in all cases: cell-based
HER2 YVMA [1] = target: T1, HER2 YVMA (Homo sapiens, UniProt P04626, INS775YVMA); assay: BaF3 cell proliferation assay, HER2 YVMA (Table B); conditions: potency code, 3 days, CellTiterGlo, read-out: HER2 YVMA (Activity for Inhibiting HER2)
T1 construct: expressed in transfected cells; host or cells: BaF3 (murine pro-B)

EGFR WT [2] = target: T2, EGFR WT (Homo sapiens, UniProt P00533); assay: BaF3 cell proliferation assay, EGFR WT (Table A); conditions: potency code, 3 days, CellTiterGlo, read-out: EGFR WT (Activity for Inhibiting EGFR)
Method: (§1) Retroviral Production: EGFR mutants were subcloned into pMXs-IRES-Blasticidin (RTV-016, Cell Biolabs, San Diego, Calif.). Retroviral expression vector retrovirus was produced by transient transfection of HEK 293T cells with the retroviral EGFR mutant expression vector pMXs-IRES-Blasticidin (RTV-016, Cell Biolabs), pCMV-Gag-Pol vector and pCMV-VSV-G-Envelope vector. Briefly, HEK 293T/17 cells were plated in 100 mm collagen coated plate (354450, Corning Life Sciences, Tewksbury, Mass.) (4×10^5 per plate) and incubated overnight. The next day, retroviral plasmids (3 μg of EGFR mutant, 1.0 μg of pCMV-Gag-Pol and 0.5 μg pCMV-VSV-G) were mixed in 500 μl of Optimem (31985, Life Technologies). The mixture was incubated at room temperature for 5 min and then added to Optimem containing transfection reagent Lipofectamine (11668, Invitrogen) and incubated for 20 minutes. Mixture was then added dropwise to HEK 293T cells. The next day the medium was replaced with fresh culture medium and retrovirus was harvested @ 24 and 48 hrs.
(§2) Generation of EGFR mutant stable cell lines: BaF3 cells (1.5E5 cells) were infected with 1 ml of viral supernatant supplemented with 8 μg/ml polybrene by centrifuging for 30 min at 1000 rpm. Cells were placed in a 37° C. incubator overnight. Cells were then spun for 5 minutes to pellet the cells. Supernatant was removed and cells re-infected a fresh 1 ml of viral supernatant supplemented with 8 μg/ml polybrene by centrifuging for 30 min at 1000 rpm. Cells were placed in 37° C. incubator overnight. […] After 48 hours cells were selected for retroviral infection in 10 μg/ml Blasticidin for one week. Blasticidin resistant populations were washed twice in phosphate buffered saline before plating in media lacking IL-3 to select for IL-3 independent growth.
(§3) EC50 values were determined with the same application.

EGFR V3 [3] = target: T3, EGFR V3 (Homo sapiens, UniProt P00533, DELINS30-297G); assay: BaF3 cell proliferation assay, EGFR V3 (Table A); conditions: potency code, 3 days, CellTiterGlo, read-out: EGFR V3 (Activity for Inhibiting EGFR)
T3 construct: expressed in transfected cells; host or cells: BaF3 (murine pro-B), retroviral pMXs-IRES-Blasticidin
Method: as §1, §2, §3

HER2 YVMA [4] = target: T1, HER2 YVMA; assay: Activity for inhibiting HER2 (Table B), HER2 YVMA; conditions: read-out: HER2 YVMA, potency code (IC50)
Method: as §3

EGFR V3 [5] = target: T3, EGFR V3; assay: Activity for inhibiting EGFR (Table A), EGFR V3 (EGFR-Viii); conditions: read-out: EGFR V3, potency code (IC50)
EGFR WT [6] = target: T2, EGFR WT; assay: Activity for inhibiting EGFR (Table A), EGFR WT; conditions: read-out: EGFR WT, potency code (IC50)
HER2 S310F [7] = target: T4, HER2 S310F (Homo sapiens, UniProt P04626, S310F); assay: Activity for inhibiting HER2 (Table B), HER2 S310F; conditions: read-out: HER2 S310F, potency code (IC50)
T4 construct: expressed in transfected cells; host or cells: BaF3 (murine pro-B)
Method: as §3

HER2 S310F [8] = target: T4, HER2 S310F; assay: BaF3 cell proliferation assay, HER2 S310F (Table B); conditions: potency code, 3 days, CellTiterGlo, read-out: HER2 S310F (Activity for Inhibiting HER2)

T1 sequence (P04626 with tags, fused parts or gaps INS775YVMA): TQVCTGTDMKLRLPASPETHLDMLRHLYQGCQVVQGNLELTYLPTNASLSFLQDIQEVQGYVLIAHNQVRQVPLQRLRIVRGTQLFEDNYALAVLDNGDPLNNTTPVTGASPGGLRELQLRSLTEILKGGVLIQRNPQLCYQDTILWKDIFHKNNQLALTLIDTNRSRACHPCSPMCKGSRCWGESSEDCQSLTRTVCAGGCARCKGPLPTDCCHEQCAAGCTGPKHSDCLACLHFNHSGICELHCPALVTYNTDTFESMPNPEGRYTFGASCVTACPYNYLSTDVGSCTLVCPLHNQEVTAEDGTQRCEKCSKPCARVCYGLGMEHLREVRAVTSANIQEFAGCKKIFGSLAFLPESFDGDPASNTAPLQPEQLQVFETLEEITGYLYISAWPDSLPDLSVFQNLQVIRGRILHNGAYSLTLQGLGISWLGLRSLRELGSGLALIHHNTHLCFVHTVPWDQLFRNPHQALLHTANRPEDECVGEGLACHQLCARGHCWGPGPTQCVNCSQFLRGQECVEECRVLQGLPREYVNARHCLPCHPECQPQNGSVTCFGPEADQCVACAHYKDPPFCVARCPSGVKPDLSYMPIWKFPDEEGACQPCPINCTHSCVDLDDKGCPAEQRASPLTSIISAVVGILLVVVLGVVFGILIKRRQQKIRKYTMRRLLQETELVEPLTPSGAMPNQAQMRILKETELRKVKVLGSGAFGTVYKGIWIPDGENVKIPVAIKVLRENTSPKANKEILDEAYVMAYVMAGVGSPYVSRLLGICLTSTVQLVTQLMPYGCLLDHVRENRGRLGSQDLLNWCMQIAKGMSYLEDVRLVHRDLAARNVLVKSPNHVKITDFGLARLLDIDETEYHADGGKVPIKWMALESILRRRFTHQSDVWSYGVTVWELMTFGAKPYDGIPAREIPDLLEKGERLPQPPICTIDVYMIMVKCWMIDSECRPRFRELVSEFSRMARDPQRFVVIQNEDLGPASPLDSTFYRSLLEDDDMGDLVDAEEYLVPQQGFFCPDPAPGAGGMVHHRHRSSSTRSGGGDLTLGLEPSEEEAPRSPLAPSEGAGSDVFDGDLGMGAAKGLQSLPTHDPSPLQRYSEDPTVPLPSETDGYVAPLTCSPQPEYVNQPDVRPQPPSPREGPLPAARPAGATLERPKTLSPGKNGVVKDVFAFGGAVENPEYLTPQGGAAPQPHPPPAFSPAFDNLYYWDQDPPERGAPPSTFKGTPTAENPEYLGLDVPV
T3 sequence (P00533 with tags, fused parts or gaps DELINS30-297G): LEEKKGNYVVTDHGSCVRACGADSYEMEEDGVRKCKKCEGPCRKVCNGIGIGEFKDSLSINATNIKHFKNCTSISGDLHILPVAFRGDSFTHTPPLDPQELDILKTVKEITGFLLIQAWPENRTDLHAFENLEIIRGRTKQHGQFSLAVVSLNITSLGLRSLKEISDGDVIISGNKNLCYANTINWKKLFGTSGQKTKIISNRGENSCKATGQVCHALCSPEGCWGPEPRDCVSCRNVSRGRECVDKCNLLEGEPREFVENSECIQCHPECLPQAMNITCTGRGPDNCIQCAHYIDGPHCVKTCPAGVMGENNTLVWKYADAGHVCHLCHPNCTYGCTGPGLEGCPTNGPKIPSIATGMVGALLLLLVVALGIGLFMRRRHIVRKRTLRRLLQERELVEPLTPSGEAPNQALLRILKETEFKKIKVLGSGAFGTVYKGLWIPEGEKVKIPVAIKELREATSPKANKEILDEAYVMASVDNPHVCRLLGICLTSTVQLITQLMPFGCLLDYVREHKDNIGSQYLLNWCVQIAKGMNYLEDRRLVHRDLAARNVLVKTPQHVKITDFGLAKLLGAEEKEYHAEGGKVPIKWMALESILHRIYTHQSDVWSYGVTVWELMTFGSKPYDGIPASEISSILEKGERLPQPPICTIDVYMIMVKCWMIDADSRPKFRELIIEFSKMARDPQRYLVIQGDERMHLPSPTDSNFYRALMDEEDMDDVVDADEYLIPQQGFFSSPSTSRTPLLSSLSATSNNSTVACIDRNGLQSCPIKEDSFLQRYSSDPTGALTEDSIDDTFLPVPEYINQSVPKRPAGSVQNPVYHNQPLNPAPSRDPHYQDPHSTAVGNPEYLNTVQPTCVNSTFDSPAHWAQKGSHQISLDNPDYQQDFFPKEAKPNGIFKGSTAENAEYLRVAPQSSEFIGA
T4 sequence (P04626 23-1255 S310F): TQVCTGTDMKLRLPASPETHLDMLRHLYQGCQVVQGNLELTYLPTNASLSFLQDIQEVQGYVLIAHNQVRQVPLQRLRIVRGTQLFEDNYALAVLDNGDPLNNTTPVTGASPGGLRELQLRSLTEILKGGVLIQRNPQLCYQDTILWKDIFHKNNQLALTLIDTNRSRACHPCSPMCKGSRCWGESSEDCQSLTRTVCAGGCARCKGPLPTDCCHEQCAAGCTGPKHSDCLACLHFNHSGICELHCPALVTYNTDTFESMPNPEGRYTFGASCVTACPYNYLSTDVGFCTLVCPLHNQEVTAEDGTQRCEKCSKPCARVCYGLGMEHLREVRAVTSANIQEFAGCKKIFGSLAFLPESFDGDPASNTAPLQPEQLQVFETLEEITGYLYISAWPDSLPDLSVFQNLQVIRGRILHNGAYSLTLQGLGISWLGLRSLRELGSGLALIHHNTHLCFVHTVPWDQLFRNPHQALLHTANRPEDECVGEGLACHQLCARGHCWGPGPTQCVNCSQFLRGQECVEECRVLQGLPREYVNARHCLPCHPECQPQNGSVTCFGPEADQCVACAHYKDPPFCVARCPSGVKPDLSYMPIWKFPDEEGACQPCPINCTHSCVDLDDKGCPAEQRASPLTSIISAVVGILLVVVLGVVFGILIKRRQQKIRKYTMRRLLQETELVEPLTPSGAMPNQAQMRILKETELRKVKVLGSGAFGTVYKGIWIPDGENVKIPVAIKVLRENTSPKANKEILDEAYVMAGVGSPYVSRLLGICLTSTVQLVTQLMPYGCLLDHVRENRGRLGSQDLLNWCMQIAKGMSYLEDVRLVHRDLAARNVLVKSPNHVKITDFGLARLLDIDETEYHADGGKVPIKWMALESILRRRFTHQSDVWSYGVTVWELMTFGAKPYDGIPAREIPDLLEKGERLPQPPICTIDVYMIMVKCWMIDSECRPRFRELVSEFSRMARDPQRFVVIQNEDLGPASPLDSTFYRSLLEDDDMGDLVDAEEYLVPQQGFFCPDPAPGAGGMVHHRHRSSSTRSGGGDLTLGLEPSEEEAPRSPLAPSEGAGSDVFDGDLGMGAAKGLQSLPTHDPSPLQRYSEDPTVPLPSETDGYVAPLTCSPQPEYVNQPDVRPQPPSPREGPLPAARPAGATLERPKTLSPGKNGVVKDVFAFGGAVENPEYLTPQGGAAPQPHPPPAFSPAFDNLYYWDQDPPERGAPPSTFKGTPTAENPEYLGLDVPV
T2 sequence (P00533 25-1210 N540K): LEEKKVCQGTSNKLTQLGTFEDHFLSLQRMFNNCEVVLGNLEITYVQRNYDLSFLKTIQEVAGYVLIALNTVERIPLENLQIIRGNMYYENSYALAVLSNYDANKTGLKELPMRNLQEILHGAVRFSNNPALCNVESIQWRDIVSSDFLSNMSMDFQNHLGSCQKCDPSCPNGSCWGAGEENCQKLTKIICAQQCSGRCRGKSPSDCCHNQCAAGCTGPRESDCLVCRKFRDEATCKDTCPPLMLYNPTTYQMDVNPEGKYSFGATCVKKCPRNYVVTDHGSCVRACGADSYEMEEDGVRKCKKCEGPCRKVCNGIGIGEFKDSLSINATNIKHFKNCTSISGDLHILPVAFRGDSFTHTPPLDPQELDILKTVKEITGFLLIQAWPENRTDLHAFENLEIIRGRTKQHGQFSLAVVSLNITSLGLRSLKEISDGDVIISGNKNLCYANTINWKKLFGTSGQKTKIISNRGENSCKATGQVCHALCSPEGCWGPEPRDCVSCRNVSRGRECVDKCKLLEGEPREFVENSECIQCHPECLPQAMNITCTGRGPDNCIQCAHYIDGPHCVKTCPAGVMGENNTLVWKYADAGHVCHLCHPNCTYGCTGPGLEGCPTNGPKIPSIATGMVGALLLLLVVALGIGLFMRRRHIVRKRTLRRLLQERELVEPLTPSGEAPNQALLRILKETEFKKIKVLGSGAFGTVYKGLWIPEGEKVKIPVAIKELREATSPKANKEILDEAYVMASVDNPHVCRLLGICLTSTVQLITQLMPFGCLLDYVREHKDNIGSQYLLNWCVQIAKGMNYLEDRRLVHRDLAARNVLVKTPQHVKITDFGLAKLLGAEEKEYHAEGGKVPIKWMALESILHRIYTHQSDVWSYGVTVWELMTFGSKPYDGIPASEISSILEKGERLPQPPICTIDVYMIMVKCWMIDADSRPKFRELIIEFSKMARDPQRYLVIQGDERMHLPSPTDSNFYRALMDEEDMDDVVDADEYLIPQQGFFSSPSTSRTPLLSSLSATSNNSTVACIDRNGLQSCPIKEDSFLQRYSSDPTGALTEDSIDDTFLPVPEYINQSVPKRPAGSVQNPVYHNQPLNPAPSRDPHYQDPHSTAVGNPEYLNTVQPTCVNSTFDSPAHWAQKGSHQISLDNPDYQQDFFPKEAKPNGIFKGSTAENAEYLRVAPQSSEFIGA

Row | IC50 (HER2 YVMA [1]) | IC50 (EGFR WT [2]) | IC50 (EGFR V3 [3]) | IC50 (HER2 YVMA [4]) | IC50 (EGFR V3 [5]) | IC50 (EGFR WT [6]) | IC50 (HER2 S310F [7]) | IC50 (HER2 S310F [8]) | Structure (SMILES)
1 | > 1 µM | 0.5 to 1 µM | 0.05 to 0.1 µM | > 1 µM | 0.05 to 0.1 µM | 0.5 to 1 µM | 0.2 to 0.3 µM | 0.2 to 0.3 µM | C=CC(=O)Nc1cc2c(Nc3ccc(OCc4ccccn4)nc3)ncnc2cc1OCCN1CCOCC1 [compound 71]
2 | 0.1 to 0.2 µM | 0.5 to 1 µM | 0.03 to 0.05 µM | 0.1 to 0.2 µM | 0.03 to 0.05 µM | 0.5 to 1 µM | 0.03 to 0.05 µM | 0.03 to 0.05 µM | C=CC(=O)Nc1cc2c(Nc3ccc(OCc4cccc(F)n4)c(Cl)c3)ncnc2cc1OCCN1CCOCC1 [compound 154]
3 | 0.3 to 0.5 µM | 0.2 to 0.3 µM | 0.05 to 0.1 µM | 0.3 to 0.5 µM | 0.05 to 0.1 µM | 0.2 to 0.3 µM | 0.03 to 0.05 µM | 0.03 to 0.05 µM | C=CC(=O)Nc1cc2c(Nc3cc(Cl)c(OCc4cccc(F)c4)cc3F)ncnc2cc1OCCN1CC(OC)C1 [compound 134]
4 | 0.1 to 0.2 µM | 0.3 to 0.5 µM | 0.05 to 0.1 µM | 0.1 to 0.2 µM | 0.05 to 0.1 µM | 0.3 to 0.5 µM | 0.05 to 0.1 µM | 0.05 to 0.1 µM | C=CC(=O)Nc1cc2c(Nc3ccc(OCc4ccccn4)c(Cl)c3)ncnc2cc1OCCN1CC2(CN(C)C2)C1 [compound 119, N-(4-((3-chloro-4-(pyridin-2-ylmethoxy)phenyl)amino)-7-(2-(6-methyl-2,6-diazaspiro[3.3]heptan-2-yl)ethoxy)quinazolin-6-yl)acrylamide]
5 | 0.1 to 0.2 µM | > 1 µM | 0.05 to 0.1 µM | 0.1 to 0.2 µM | 0.05 to 0.1 µM | > 1 µM | 0.03 to 0.05 µM | 0.03 to 0.05 µM | C=CC(=O)Nc1cc2c(Nc3ccc(OCc4ccncn4)c(Cl)c3)ncnc2cc1OCCCN1CCOCC1 [compound 163]
6 | 0.3 to 0.5 µM | 0.3 to 0.5 µM | 0.1 to 0.2 µM | 0.3 to 0.5 µM | 0.1 to 0.2 µM | 0.3 to 0.5 µM | 0.1 to 0.2 µM | 0.1 to 0.2 µM | C=CC(=O)Nc1cc2c(Nc3ccc(OCc4cccc(F)c4)c(Cl)c3)ncnc2cc1OCCCN1C[C@H]2C[C@@H]1CO2 [compound 160]
7 | 0.5 to 1 µM | 0.5 to 1 µM | 0.1 to 0.2 µM | 0.5 to 1 µM | 0.1 to 0.2 µM | 0.5 to 1 µM | 0.05 to 0.1 µM | 0.05 to 0.1 µM | CC#CC(=O)Nc1cc2c(Nc3ccc(Oc4ccccc4)cc3)ncnc2cc1C#C[C@@H]1[C@H]2CN(C)C[C@@H]12 [compound 108, N-(7-(((1R,5S,6s)-3-methyl-3-azabicyclo[3.1.0]hexan-6-yl)ethynyl)-4-((4-phenoxyphenyl)amino)quinazolin-6-yl)but-2-ynamide]
8 | 0.05 to 0.1 µM | 0.5 to 1 µM | 0.03 to 0.05 µM | 0.05 to 0.1 µM | 0.03 to 0.05 µM | 0.5 to 1 µM | 0.01 to 0.02 µM | 0.01 to 0.02 µM | C=CC(=O)Nc1cc2c(Nc3ccc(OCc4cccc(F)n4)c(Cl)c3)ncnc2cc1OCCCN1CCOCC1 [compound 153]
9 | 0.1 to 0.2 µM | > 1 µM | 0.03 to 0.05 µM | 0.1 to 0.2 µM | 0.03 to 0.05 µM | > 1 µM | 0.02 to 0.03 µM | 0.02 to 0.03 µM | C=CC(=O)Nc1cc2c(Nc3ccc(OCc4cnccn4)c(Cl)c3)ncnc2cc1OCCN1CCOCC1 [compound 176]
10 | 0.03 to 0.05 µM | 0.3 to 0.5 µM | 0.03 to 0.05 µM | 0.03 to 0.05 µM | 0.03 to 0.05 µM | 0.3 to 0.5 µM | 0.01 to 0.02 µM | 0.01 to 0.02 µM | C=CC(=O)Nc1cc2c(Nc3ccc(OCc4cccc(F)n4)c(Cl)c3)ncnc2cc1OCCCN1CC(OC)C1 [compound 155]
11 | 0.1 to 0.2 µM | 0.1 to 0.2 µM | 0.1 to 0.2 µM | 0.1 to 0.2 µM | 0.1 to 0.2 µM | 0.1 to 0.2 µM | 0.03 to 0.05 µM | 0.03 to 0.05 µM | CC#CC(=O)Nc1cc2c(Nc3cc(Cl)c(OCc4cccc(F)c4)cc3F)ncnc2cc1OCCCN1CC(OC)C1 [compound 136, N-(4-((5-chloro-2-fluoro-4-((3-fluorobenzyl)oxy)phenyl)amino)-7-(3-(3-methoxyazetidin-1-yl)propoxy)quinazolin-6-yl)but-2-ynamide]
12 | 0.1 to 0.2 µM | 0.2 to 0.3 µM | 0.05 to 0.1 µM | 0.1 to 0.2 µM | 0.05 to 0.1 µM | 0.2 to 0.3 µM | 0.03 to 0.05 µM | 0.03 to 0.05 µM | C=CC(=O)Nc1cc2c(Nc3ccc(OCc4cccc(F)c4)c(Cl)c3)ncnc2cc1OCCN1CC(OC)C1 [compound 143]
13 | 0.2 to 0.3 µM | 0.5 to 1 µM | 0.05 to 0.1 µM | 0.2 to 0.3 µM | 0.05 to 0.1 µM | 0.5 to 1 µM | 0.03 to 0.05 µM | 0.03 to 0.05 µM | C=CC(=O)Nc1cc2c(Nc3ccc(Oc4ccccc4)c(Cl)c3)ncnc2cc1O[C@@H]1CCN(C)C1 [compound 91, (R)-N-(4-((3-chloro-4-phenoxyphenyl)amino)-7-((1-methylpyrrolidin-3-yl)oxy)quinazolin-6-yl)acrylamide]
14 | 0.2 to 0.3 µM | 0.5 to 1 µM | 0.05 to 0.1 µM | 0.2 to 0.3 µM | 0.05 to 0.1 µM | 0.5 to 1 µM | 0.05 to 0.1 µM | 0.05 to 0.1 µM | C=CC(=O)Nc1cc2c(Nc3cc(Cl)c(OCc4cccc(F)c4)cc3F)ncnc2cc1OCCN1CC2CCC(C1)O2 [compound 147]
15 | 0.2 to 0.3 µM | 0.2 to 0.3 µM | 0.03 to 0.05 µM | 0.2 to 0.3 µM | 0.03 to 0.05 µM | 0.2 to 0.3 µM | 0.02 to 0.03 µM | 0.02 to 0.03 µM | C=CC(=O)Nc1cc2c(Nc3ccc(OCc4ccccn4)c(Cl)c3)ncnc2cc1OCC1(CN(C)C)CC1 [compound 98, N-(4-((3-chloro-4-(pyridin-2-ylmethoxy)phenyl)amino)-7-((1-((dimethylamino)methyl)cyclopropyl)methoxy)quinazolin-6-yl)acrylamide]
16 | 0.05 to 0.1 µM | 0.3 to 0.5 µM | 0.03 to 0.05 µM | 0.05 to 0.1 µM | 0.03 to 0.05 µM | 0.3 to 0.5 µM | 0.03 to 0.05 µM | 0.03 to 0.05 µM | C=CC(=O)Nc1cc2c(Nc3ccc(OCc4ccccn4)c(Cl)c3)ncnc2cc1C#CC12CCN(CC1)CC2 [compound 126, N-(4-((3-chloro-4-(pyridin-2-ylmethoxy)phenyl)amino)-7-(quinuclidin-4-ylethynyl)quinazolin-6-yl)acrylamide]
17 | > 1 µM | 0.5 to 1 µM | 0.1 to 0.2 µM | > 1 µM | 0.1 to 0.2 µM | 0.5 to 1 µM | 0.3 to 0.5 µM | 0.3 to 0.5 µM | C=CC(=O)Nc1cc2c(Nc3ccc(OCc4ccnc(C)c4)c(Cl)c3)ncnc2cc1OCCN1CCOCC1 [compound 142]
18 | 0.5 to 1 µM | > 1 µM | 0.3 to 0.5 µM | 0.5 to 1 µM | 0.3 to 0.5 µM | > 1 µM | 0.3 to 0.5 µM | 0.3 to 0.5 µM | C=CC(=O)Nc1cc2c(Nc3ccc(OCc4cccc(C)n4)c(Cl)c3)ncnc2cc1OCCN1CC2CCC(C1)O2 [compound 132]
19 | 0.05 to 0.1 µM | 0.03 to 0.05 µM | 0.01 to 0.02 µM | 0.05 to 0.1 µM | 0.01 to 0.02 µM | 0.03 to 0.05 µM | 0.01 to 0.02 µM | 0.01 to 0.02 µM | C=C(F)C(=O)Nc1cc2c(Nc3ccc(OCc4ccccn4)c(Cl)c3)ncnc2cc1OCCN1CCOCC1 [compound 109, N-(4-((3-chloro-4-(pyridin-2-ylmethoxy)phenyl)amino)-7-(2-morpholinoethoxy)quinazolin-6-yl)-2-fluoroacrylamide]

Source: patent US11034672B1, “Tyrosine kinase inhibitor compositions, methods of making and methods of use” (Black Diamond Therapeutics, Inc., priority 2018, dated 2021)
